Values joined by “and” are separate entries in the source; they are usually repeats but may differ in a detail not shown here. Identical values can stand only once. Like-named read-outs stand apart in the source and are kept apart here.
What was measured:
[1] = target: T1, CDK12–cyclin K and DDB1 (Homo sapiens, UniProt Q16531+Q9NYV4, K965R); assay: TR-FRET ternary complex formation assay (compound titration); type: binding
T1 construct: His6–CDK12 (a.a. 713–1,052); full-length or beta-propeller B domain deletion (ΔBPB: a.a. 396–705 deleted) constructs of His6–DDB1ΔBPB, StrepII–Avi–DDB1, or His6–Spy–DDB1; made in house; host or cells: Trichoplusia ni High Five insect cells (baculovirus)
In short: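 Background fluorescence is reduced by reading 70 μs after excitation, and complex formation is followed as the 520:490 nm fluorescence ratio.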

[2] = tested on: cyclin K–eGFP degradation reporter; assay: Cyclin K reporter stability analysis (dual-color cyclin K–eGFP reporter); type: cell-based, human
In short: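 Cells (HEK293T–Cas9, reporter-expressing) at 1 × 10^6 ml^−1; 5 h compound or DMSO; flow cytometry; gMFI eGFP ÷ mCherry on round mCherry-positive events; normalized to 3 DMSO controls.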

[3] = tested on: HEK293T cells; assay: Drug sensitivity assay (CellTiter-Glo viability) with or without MLN4924 pretreatment; type: cell-based, human; settings: Supplementary Table 2; for EC50: Homo sapiens, HEK-293T, HEK293T viability, 72 h, compound alone, read-out: Cellular assays EC50; for Toxicity rescue: MLN4924-mediated cytotoxicity rescue, 10 µM used where n.d.
In short: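 First, cells (HEK293T–Cas9, 0.15 × 10^6 ml^−1) are exposed to DMSO or 100 nM MLN4924. Next, drugs follow at 2 h. Finally, CellTiter-Glo is read at day 3 and normalised to DMSO.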

[4] = target: CDK12–cyclin K (Homo sapiens, UniProt Q9NYV4); assay: Lanthascreen kinase binding assay, CDK12; settings: for Lanthascreen raw signal, sheet CDK12: series r1, duplicates
Method: (§1) Lanthascreen experiments were performed using commercially available reagents (Thermo Fisher) and according to the manufacturer’s instructions.

[5] = target: T2, CDK9–cyclin T (Homo sapiens, UniProt P50750); assay: Lanthascreen kinase binding assay, CDK9; settings: for IC50: Supplementary Table 2, read-out: Lanthascreen IC50 [nM] CDK9; for Lanthascreen TR-FRET signal (raw ratio), sheet CDK9: first titration set (r1), duplicates
T2 construct: purchased Thermo Fisher
Method: as §1

[6] = target: T3, CDK2–cyclin A (Homo sapiens, UniProt P24941); assay: Lanthascreen kinase binding assay, CDK2; settings: for Lanthascreen signal, sheet CDK2: raw replicates, experiment r1-r11
T3 construct: purchased Thermo Fisher
Method: as §1

[7] = in vitro complex formation, 50 nM CDK12–cyclin K, 100 nM DDB1, text and figures, read-out: TR-FRET EC50
[8] = sheet MOESM7, read-out: log TR-FRET EC50 (converted)
[9] = Supplementary Table 2, read-out: Lanthascreen IC50 [nM] CDK12
[10] = Lanthascreen, average, Extended Data Fig. 8, read-out: CDK2 IC50
[11] = Supplementary Table 2, read-out: Lanthascreen IC50 [nM] CDK2

T2 sequence (P50750 whole entry): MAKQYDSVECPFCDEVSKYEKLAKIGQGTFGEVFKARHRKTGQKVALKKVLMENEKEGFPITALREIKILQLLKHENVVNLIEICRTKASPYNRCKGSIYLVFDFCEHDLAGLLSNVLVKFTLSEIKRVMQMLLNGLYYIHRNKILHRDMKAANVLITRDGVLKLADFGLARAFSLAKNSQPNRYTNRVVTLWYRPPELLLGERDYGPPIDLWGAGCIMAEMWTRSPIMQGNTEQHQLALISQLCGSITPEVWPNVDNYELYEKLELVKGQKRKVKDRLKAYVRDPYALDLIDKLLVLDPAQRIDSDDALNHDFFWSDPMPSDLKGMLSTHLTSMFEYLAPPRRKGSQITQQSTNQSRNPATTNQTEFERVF
T2 sequence (O60563 whole entry partner): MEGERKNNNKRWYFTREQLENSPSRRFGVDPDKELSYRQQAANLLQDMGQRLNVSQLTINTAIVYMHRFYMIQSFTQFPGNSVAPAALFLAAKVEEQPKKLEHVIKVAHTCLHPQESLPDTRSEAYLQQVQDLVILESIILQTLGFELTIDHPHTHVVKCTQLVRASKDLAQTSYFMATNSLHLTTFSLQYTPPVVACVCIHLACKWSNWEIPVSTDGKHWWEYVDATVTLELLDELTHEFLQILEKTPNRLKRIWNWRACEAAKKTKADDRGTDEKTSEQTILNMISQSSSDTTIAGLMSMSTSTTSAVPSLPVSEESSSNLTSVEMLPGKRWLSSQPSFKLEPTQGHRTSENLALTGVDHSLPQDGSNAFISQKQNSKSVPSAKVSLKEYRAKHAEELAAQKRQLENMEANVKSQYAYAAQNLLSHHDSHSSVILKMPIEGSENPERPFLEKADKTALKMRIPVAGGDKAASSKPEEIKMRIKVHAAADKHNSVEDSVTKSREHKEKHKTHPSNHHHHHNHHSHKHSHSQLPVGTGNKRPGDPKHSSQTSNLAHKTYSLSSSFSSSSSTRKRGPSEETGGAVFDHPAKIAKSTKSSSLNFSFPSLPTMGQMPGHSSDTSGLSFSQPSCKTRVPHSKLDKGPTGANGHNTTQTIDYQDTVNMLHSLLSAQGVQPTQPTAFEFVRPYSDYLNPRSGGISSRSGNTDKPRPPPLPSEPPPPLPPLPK
T1 sequence (Q9NYV4 713-1052 K965R): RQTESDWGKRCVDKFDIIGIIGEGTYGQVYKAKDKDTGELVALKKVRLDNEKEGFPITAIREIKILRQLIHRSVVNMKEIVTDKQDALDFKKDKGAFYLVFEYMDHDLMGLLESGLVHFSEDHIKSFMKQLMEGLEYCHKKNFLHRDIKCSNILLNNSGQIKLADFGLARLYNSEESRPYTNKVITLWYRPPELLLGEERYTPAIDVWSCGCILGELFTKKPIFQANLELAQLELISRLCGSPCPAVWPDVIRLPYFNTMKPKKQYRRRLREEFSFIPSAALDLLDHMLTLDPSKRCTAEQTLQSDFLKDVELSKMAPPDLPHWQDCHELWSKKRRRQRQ
T1 sequence (O75909 1-267 partner): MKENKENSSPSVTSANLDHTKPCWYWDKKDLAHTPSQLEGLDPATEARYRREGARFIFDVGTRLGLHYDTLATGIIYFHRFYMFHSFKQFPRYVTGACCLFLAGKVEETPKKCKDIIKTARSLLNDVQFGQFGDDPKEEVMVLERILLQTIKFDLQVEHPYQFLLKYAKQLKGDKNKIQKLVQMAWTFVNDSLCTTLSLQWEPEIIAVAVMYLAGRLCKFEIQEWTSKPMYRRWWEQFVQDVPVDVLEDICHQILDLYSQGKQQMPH
T1 sequence (Q16531 whole entry): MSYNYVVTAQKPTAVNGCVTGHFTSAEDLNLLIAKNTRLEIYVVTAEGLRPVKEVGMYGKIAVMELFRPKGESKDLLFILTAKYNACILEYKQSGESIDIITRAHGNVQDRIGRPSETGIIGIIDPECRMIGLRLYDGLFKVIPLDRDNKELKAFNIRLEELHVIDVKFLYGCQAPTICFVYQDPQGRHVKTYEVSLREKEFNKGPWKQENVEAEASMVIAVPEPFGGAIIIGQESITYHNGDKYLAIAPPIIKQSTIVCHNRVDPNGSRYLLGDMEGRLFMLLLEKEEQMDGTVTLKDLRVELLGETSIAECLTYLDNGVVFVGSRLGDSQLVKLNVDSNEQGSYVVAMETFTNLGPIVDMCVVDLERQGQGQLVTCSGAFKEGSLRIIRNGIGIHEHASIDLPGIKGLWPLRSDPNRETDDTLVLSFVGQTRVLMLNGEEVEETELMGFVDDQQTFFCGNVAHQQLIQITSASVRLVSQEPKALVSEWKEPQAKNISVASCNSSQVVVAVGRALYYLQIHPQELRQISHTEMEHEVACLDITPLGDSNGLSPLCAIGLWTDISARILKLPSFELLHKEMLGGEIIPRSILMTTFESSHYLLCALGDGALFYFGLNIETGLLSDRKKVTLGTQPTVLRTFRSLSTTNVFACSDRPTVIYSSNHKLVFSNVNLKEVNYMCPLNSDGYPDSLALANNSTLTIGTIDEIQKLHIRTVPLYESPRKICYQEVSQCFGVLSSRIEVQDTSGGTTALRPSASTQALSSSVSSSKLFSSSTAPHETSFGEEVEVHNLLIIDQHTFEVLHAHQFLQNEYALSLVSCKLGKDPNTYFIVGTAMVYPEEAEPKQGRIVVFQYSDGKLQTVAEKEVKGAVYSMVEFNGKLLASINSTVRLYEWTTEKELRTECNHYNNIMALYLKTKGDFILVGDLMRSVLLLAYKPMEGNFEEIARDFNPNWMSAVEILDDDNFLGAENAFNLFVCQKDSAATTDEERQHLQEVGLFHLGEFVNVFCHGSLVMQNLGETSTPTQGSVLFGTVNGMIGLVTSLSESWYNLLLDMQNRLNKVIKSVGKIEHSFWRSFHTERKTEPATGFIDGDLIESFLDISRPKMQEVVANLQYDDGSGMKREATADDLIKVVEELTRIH
Sequence of CDK12–cyclin K (Q9NYV4 713-1052): as the sequence (Q9NYV4 713-1052 K965R) above, with R253K counted along it
Sequence of CDK12–cyclin K (O75909 1-267 partner limits assumed): as the sequence (O75909 1-267 partner) above

Structure (SMILES): Cn1cc(-c2cnn3c(NCc4nc5cc(Cl)c(Cl)cc5[nH]4)nc(N4CCOCC4)nc23)cn1 [DS74]
- TR-FRET signal at compound concentration 0.468 nM ([1]; compound concentration 0.468 nM, raw replicate titration data): 0.2798 and 0.3065 and 0.1782 and 0.1849
- TR-FRET signal at compound concentration 2.16 nM ([1]; compound concentration 2.16 nM, raw replicate titration data): 0.3614 and 0.3498 and 0.2211 and 0.2229
- TR-FRET signal at compound concentration 3.6 nM ([1]; compound concentration 3.6 nM, raw replicate titration data): 0.435 and 0.4393 and 0.2978 and 0.2973
- TR-FRET signal at compound concentration 7.92001 nM ([1]; compound concentration 7.92001 nM, raw replicate titration data): 0.5995 and 0.6274 and 0.4373 and 0.4353
- TR-FRET signal at compound concentration 15.84 nM ([1]; compound concentration 15.84 nM, raw replicate titration data): 0.9577 and 0.9944 and 0.7392 and 0.7343
- TR-FRET signal at compound concentration 30.96 nM ([1]; compound concentration 30.96 nM, raw replicate titration data): 1.593 and 1.564 and 1.2847 and 1.436
- TR-FRET signal at compound concentration 62.6401 nM ([1]; compound concentration 62.6401 nM, raw replicate titration data): 1.875 and 1.832 and 1.71 and 1.6908
- TR-FRET signal at compound concentration 125.28 nM ([1]; compound concentration 125.28 nM, raw replicate titration data): 1.954 and 1.862 and 1.734 and 1.741
- TR-FRET signal at compound concentration 244.8 nM ([1]; compound concentration 244.8 nM, raw replicate titration data): 2.043 and 1.982 and 1.799 and 1.754
- TR-FRET signal at compound concentration 993.601 nM ([1]; compound concentration 993.601 nM, raw replicate titration data): 2.0625 and 2.016 and 1.825 and 1.774
- TR-FRET signal at compound concentration 2001.6 nM ([1]; compound concentration 2001.6 nM, raw replicate titration data): 1.983 and 1.981 and 1.797 and 1.763
- EC50 [1, 7]: 20 ± 1 nM
- EC50 [1, 8]: 19.8 nM
- EC50 ([1]; source data sheet correlations, read-out: TR-FRET EC50): 19.8 nM
- DC50 ([2]; source data sheet correlations, read-out: DC50): 51 nM
- EC50 [3]: 104 nM
- Toxicity rescue [3]: 916%
- IC50 [4, 9]: 25 nM
- Lanthascreen raw signal, sheet CDK12 ([4]; compound 1.02544 nM): 0.009355 and 0.008483
- Lanthascreen raw signal, sheet CDK12 ([4]; compound 3.15521 nM): 0.00952 and 0.009538
- Lanthascreen raw signal, sheet CDK12 ([4]; compound 9.46563 nM): 0.009122 and 0.008857
- Lanthascreen raw signal, sheet CDK12 ([4]; compound 31.5521 nM): 0.006579 and 0.007668
- Lanthascreen raw signal, sheet CDK12 ([4]; compound 99.3891 nM): 0.005593 and 0.007192
- Lanthascreen raw signal, sheet CDK12 ([4]; compound 315.521 nM): 0.006881 and 0.006508
- Lanthascreen raw signal, sheet CDK12 ([4]; compound 3155.21 nM): 0.007229 and 0.005774
- Lanthascreen raw signal, sheet CDK12 ([4]; compound 10002 nM): 0.005716 and 0.005184
- IC50 [5]: 2580 nM
- Lanthascreen TR-FRET signal (raw ratio), sheet CDK9 ([5]; compound 1.02544 nM): 0.01642 and 0.01407
- Lanthascreen TR-FRET signal (raw ratio), sheet CDK9 ([5]; compound 3.15521 nM): 0.01297 and 0.01448
- Lanthascreen TR-FRET signal (raw ratio), sheet CDK9 ([5]; compound 9.46563 nM): 0.01462 and 0.01504
- Lanthascreen TR-FRET signal (raw ratio), sheet CDK9 ([5]; compound 31.5521 nM): 0.01422 and 0.01715
- Lanthascreen TR-FRET signal (raw ratio), sheet CDK9 ([5]; compound 99.3891 nM): 0.0151 and 0.01375
- Lanthascreen TR-FRET signal (raw ratio), sheet CDK9 ([5]; compound 315.521 nM): 0.01436 and 0.01406
- Lanthascreen TR-FRET signal (raw ratio), sheet CDK9 ([5]; compound 3155.21 nM): 0.01124 and 0.01046
- Lanthascreen TR-FRET signal (raw ratio), sheet CDK9 ([5]; compound 10002 nM): 0.00772 and 0.01002
- Lanthascreen signal, sheet CDK2 ([6]; Compound 1.02544 nM): 0.01044 and 0.01012
- Lanthascreen signal, sheet CDK2 ([6]; Compound 3.15521 nM): 0.0108 and 0.009644
- Lanthascreen signal, sheet CDK2 ([6]; Compound 9.46563 nM): 0.01089 and 0.009432
- Lanthascreen signal, sheet CDK2 ([6]; Compound 31.5521 nM): 0.01098 and 0.01188
- Lanthascreen signal, sheet CDK2 ([6]; Compound 99.3891 nM): 0.011 and 0.01075
- Lanthascreen signal, sheet CDK2 ([6]; Compound 315.521 nM): 0.009926 and 0.01051
- Lanthascreen signal, sheet CDK2 ([6]; Compound 3155.21 nM): 0.01049 and 0.01005
- Lanthascreen signal, sheet CDK2 ([6]; Compound 10002 nM): 0.009311 and 0.007215
- IC50 [6, 10]: > 10000 nM
- IC50 [6, 11]: > 10000 nM

Structure (SMILES): O=C(CCn1cnc2ccccc2c1=O)Nc1ccc(Br)cn1 [Z7]
- EC50 ([1]; Supplementary Table 2, read-out: TR-FRET EC50 TR-FRET): 303 nM
- TR-FRET signal ([1]; compound concentration 0.468 nM): 0.3146 and 0.2937
- TR-FRET signal ([1]; compound concentration 2.16 nM): 0.327 and 0.3142
- TR-FRET signal ([1]; compound concentration 3.6 nM): 0.3516 and 0.3492
- TR-FRET signal ([1]; compound concentration 4.68 nM): 0.1778 and 0.177
- TR-FRET signal ([1]; compound concentration 7.92001 nM): 0.4103 and 0.4025
- TR-FRET signal ([1]; compound concentration 15.84 nM): 0.4987 and 0.4962
- TR-FRET signal ([1]; compound concentration 21.6 nM): 0.3031 and 0.3042
- TR-FRET signal ([1]; compound concentration 30.96 nM): 0.6587 and 0.6967
- TR-FRET signal ([1]; compound concentration 36 nM): 0.5003 and 0.5187
- TR-FRET signal ([1]; compound concentration 62.6401 nM): 0.9444 and 1.024
- TR-FRET signal ([1]; compound concentration 79.2001 nM): 0.8582 and 0.8909
- TR-FRET signal ([1]; compound concentration 125.28 nM): 1.324 and 1.444
- TR-FRET signal ([1]; compound concentration 158.4 nM): 1.305 and 1.368
- TR-FRET signal ([1]; compound concentration 244.8 nM): 1.9166 and 1.983
- TR-FRET signal ([1]; compound concentration 309.6 nM): 1.882 and 1.916
- TR-FRET signal ([1]; compound concentration 626.401 nM): 2.43 and 2.4997
- TR-FRET signal ([1]; compound concentration 993.601 nM): 2.9527 and 2.952
- TR-FRET signal ([1]; compound concentration 1252.8 nM): 2.93 and 3.011
- TR-FRET signal ([1]; compound concentration 2001.6 nM): 3.382 and 3.238
- TR-FRET signal ([1]; compound concentration 2448 nM): 3.265 and 3.3741
- TR-FRET signal ([1]; compound concentration 9936.01 nM): 3.59 and 3.595
- TR-FRET signal ([1]; compound concentration 20016 nM): 3.713 and 3.698
- EC50 [1, 7]: 303 ± 16 nM
- EC50 [1, 8]: 303 nM
- DC50 ([2]; Supplementary Table 2, HEK293T cycK-eGFP reporter, 5 h, read-out: Cellular assays DC50): > 10000 nM
- EC50 [3]: > 10000 nM
- Toxicity rescue [3]: 0%
- IC50 ([4]; Lanthascreen, average, Extended Data Fig. 8, read-out: CDK12 IC50): > 10000 nM
- IC50 [4, 9]: > 10000 nM
- Lanthascreen raw signal, sheet CDK12 ([4]; compound 1.02544 nM): 0.009993 and 0.009189
- Lanthascreen raw signal, sheet CDK12 ([4]; compound 3.15521 nM): 0.007678 and 0.01017
- Lanthascreen raw signal, sheet CDK12 ([4]; compound 9.46563 nM): 0.008332 and 0.008957
- Lanthascreen raw signal, sheet CDK12 ([4]; compound 31.5521 nM): 0.009201 and 0.006925
- Lanthascreen raw signal, sheet CDK12 ([4]; compound 99.3891 nM): 0.01004 and 0.007454
- Lanthascreen raw signal, sheet CDK12 ([4]; compound 315.521 nM): 0.008681 and 0.00881
- Lanthascreen raw signal, sheet CDK12 ([4]; compound 3155.21 nM): 0.008543 and 0.006433
- Lanthascreen raw signal, sheet CDK12 ([4]; compound 10002 nM): 0.006174 and 0.006044
- IC50 [5]: 873 nM
- Lanthascreen TR-FRET signal (raw ratio), sheet CDK9 ([5]; compound 1.02544 nM): 0.01205 and 0.01344
- Lanthascreen TR-FRET signal (raw ratio), sheet CDK9 ([5]; compound 3.15521 nM): 0.01275 and 0.01665
- Lanthascreen TR-FRET signal (raw ratio), sheet CDK9 ([5]; compound 9.46563 nM): 0.01222 and 0.01758
- Lanthascreen TR-FRET signal (raw ratio), sheet CDK9 ([5]; compound 31.5521 nM): 0.01391 and 0.02091
- Lanthascreen TR-FRET signal (raw ratio), sheet CDK9 ([5]; compound 99.3891 nM): 0.01184 and 0.01953
- Lanthascreen TR-FRET signal (raw ratio), sheet CDK9 ([5]; compound 315.521 nM): 0.01137 and 0.01786
- Lanthascreen TR-FRET signal (raw ratio), sheet CDK9 ([5]; compound 3155.21 nM): 0.003916 and 0.005427
- Lanthascreen TR-FRET signal (raw ratio), sheet CDK9 ([5]; compound 10002 nM): 0.004637 and 0.003497
- Lanthascreen signal, sheet CDK2 ([6]; Compound 1.02544 nM): 0.01007 and 0.009144
- Lanthascreen signal, sheet CDK2 ([6]; Compound 3.15521 nM): 0.0112 and 0.008273
- Lanthascreen signal, sheet CDK2 ([6]; Compound 9.46563 nM): 0.0109 and 0.01003
- Lanthascreen signal, sheet CDK2 ([6]; Compound 31.5521 nM): 0.009356 and 0.009077
- Lanthascreen signal, sheet CDK2 ([6]; Compound 99.3891 nM): 0.01058 and 0.01018
- Lanthascreen signal, sheet CDK2 ([6]; Compound 315.521 nM): 0.009946 and 0.008466
- Lanthascreen signal, sheet CDK2 ([6]; Compound 3155.21 nM): 0.009117 and 0.008683
- Lanthascreen signal, sheet CDK2 ([6]; Compound 10002 nM): 0.008076 and 0.006678
- IC50 [6, 10]: > 10000 nM
- IC50 [6, 11]: > 10000 nM
